We go through six compounds from patent US10125135B2, “Chemical compounds” (AstraZeneca AB, priority 2016, dated 2018).

Series [1] in a line: Human plasma protein binding, equilibrium dialysis (RED). The settings on record: dialysis for 18 hours. In kind it is in vitro ADME. The procedure: Human Plasma Protein Binding
The automated equilibrium dialysis assay in human plasma uses the RED (Rapid Equilibrium Dialysis) Device and sample handling. The assay generally runs over two to three days including delivery of results. After dialysis for 18 hours, plasma and buffer samples are prepared for analysis by liquid chromatography and mass spectrometry. Samples are generally tested in singlicates and quantified by LC/MSMS by using a 7-point calibration curve in plasma. The compounds are pooled together in plasma pools up to 10 compounds. Three reference compounds are used in each run, Propranolol, Metoprolol and Warfarin. Warfarin is used as a control in each pool and Propranolol and Metoprolol are placed randomly in each run. An in-house Excel macro is used for preparation of files for the robot and the mass spectrometer and also used for the calculations of fraction unbound (fu %) in plasma.
On the technique in general: In equilibrium dialysis free small molecules cross a membrane that holds back macromolecules.

A short description of series [2]: logD shake flask, 1-octanol/aqueous buffer. In kind it is physicochemical. As to conditions: pH 7.4. The text has this:
The lipophilicity of a drug is an important physical property which may influence many biological and metabolic properties of a compound. The distribution coefficient between 1-octanol and aqueous buffer, Log DO/W, at pH 7.4, is the most commonly used measurement of the lipophilicity of a compound. The current method for measurement of Log DO/W is based on the traditional shake flask technique, but with the modification of measuring compounds in mixtures of ten at a time using UPLC with quantitative mass spectrometry (MS) as a method to measure the relative octanol and aqueous concentrations. […] An additional QC sample Caffeine, with low Log D, are used and randomly placed in all runs. The method has been thoroughly validated against the previous shake flask methodologies.

Series [3] in a line: Human hepatocyte assay (metabolic stability). Format: in vitro ADME. The settings on record: human hepatocytes, 37° C., 1.0×10^6 viable cells/mL; read-out: Clint (in vitro intrinsic clearance). The procedure: The metabolic stability of compounds in human hepatocytes was assessed using the following protocol: • 1. Prepare 10 mM stock solutions of compound and control compounds in appropriate solvent (DMSO). Place incubation medium (L-15Medium) in a 37° C. water bath, and allow warming for at least 15 minutes prior to use. • 2. Add 80 μL of acetonitrile to each well of the 96-well deep well plate (quenching plate). • 3. In a new 96-well plate, dilute the 10 mM test compounds and the control compounds to 100 μM by combining 198 μL of acetonitrile and 2 μL of 10 mM stock. • 4. Remove a vial of cryopreserved (less than −150° C.) human hepatocytes (LiverPool™ 10 Donor Human hepatocytes obtained from Celsis IVT. Chicago, Ill. (Product No. S01205)) from storage, ensuring that vials remain at cryogenic temperatures until thawing process ensues. As quickly as possible, thaw the cells by placing the vial in a 37° C. water bath and gently shaking the vials. Vials should remain in water bath until all ice crystals have dissolved and are no longer visible. After thawing is completed, spray vial with 70% ethanol, transfer the vial to a bio-safety cabinet. • 5. Open the vial and pour the contents into the 50 mL conical tube containing thawing medium. Place the 50 mL conical tube into a centrifuge and spin at 100 g for 10 minutes. […] Using Cellometer® Vision, count cells and determine the viable cell density. Cells with poor viability (<80% viability) are not acceptable for use. Dilute cells with incubation medium to a working cell density of 1.0×10^6 viable cells/mL. • 7. Transfer 247.5 μL of hepatocytes into each well of a 96-well cell culture plate. Place the plate on Eppendorf Thermomixer Comfort plate shaker to allow the hepatocytes to warm for 10 minutes. • 8. Add 2.5 μL of 100 μM test compound or control compounds into an incubation well containing cells, mix to achieve a homogenous suspension at 0.5 min, which when achieved, will define the 0.5 min time point. At the 0.5 min time, transfer 20 μL incubated mixture to wells in a “Quenching plate” followed by vortexing. • 9. Incubate the plate at 37° C. at 900 rpm on an Eppendorf Thermomixer Comfort plate shaker. At 5, 15, 30, 45, 60, 80, 100 and 120 min, mix the incubation system and transfer samples of 20 μL incubated mixture at each time point to wells in a separate “Quenching plate” followed by vortexing. • 10. Centrifuge the quenching plates for 20 minutes at 4,000 rpm. 4 different compounds are pooled into one cassette and used for LC/MS/MS analysis.
All calculations are carried out using Microsoft Excel. Peak areas are determined from extracted ion chromatograms. In vitro intrinsic clearance (in vitro Clint, in μL/min/10^6 cells) of parent compound is determined by regression analysis of the Ln percent parent disappearance vs. time curve. The in vitro intrinsic clearance (in vitro Clint, in μL/min/10^6 cells) is determined from the slope value using the following equation and is shown in Table C:
V=incubation volume (0.25 mL);
N=number of hepatocytes per well (0.25×10 ^6 cells).

With `COc1cc(OCCN2CC(CF)C2)ccc1[C@@H]1c2ccc3[nH]ncc3c2C[C@@H](C)N1CC(C)(C)F` [Example 5, (6S,8R)-7-(2-fluoro-2-methylpropyl)-6-(4-(2-(3-(fluoromethyl)azetidin-1-yl)ethoxy)-2-methoxyphenyl)-8-methyl-6,7,8,9-tetrahydro-3H-pyrazolo[4,3-f]isoquinoline], the “Human plasma protein binding (% free)” value in series [1] came out at 6.2 % free. In addition, the logD – broadly, lipophilicity at a set pH, counting ionised and neutral species – in series [2] is 3.5. Moreover, the hepatocyte CLint at 1 µM in series [3] is 12 µL/min/1e6 cells.

Take `C[C@@H]1Cc2c(ccc3[nH]ncc23)[C@@H](c2ccc(OCCN3CC(CF)C3)cn2)N1CC1(F)CC1` [Example 8, (6S,8R)-7-((1-fluorocyclopropyl)methyl)-6-(5-(2-(3-(fluoromethyl)azetidin-1-yl)ethoxy)pyridin-2-yl)-8-methyl-6,7,8,9-tetrahydro-3H-pyrazolo[4,3-f]isoquinoline]: in series [1], the “Human plasma protein binding (% free)” value is 34 % free. This compound also registered a logD in series [2] of 2.6. For the same compound, the hepatocyte CLint at 1 µM in series [3] came to 8 µL/min/1e6 cells.

`COc1cc(OCCN2CC(CF)C2)ccc1[C@@H]1c2ccc3[nH]ncc3c2C[C@@H](C)N1CC(C)C` [Example 9, (6S,8R)-6-(4-(2-(3-(fluoromethyl)azetidin-1-yl)ethoxy)-2-methoxyphenyl)-7-isobutyl-8-methyl-6,7,8,9-tetrahydro-3H-pyrazolo[4,3-f]isoquinoline]: the “Human plasma protein binding (% free)” value in series [1] stood at 52 % free. In addition, in series [2], the logD was 2.4. The hepatocyte CLint at 1 µM in series [3] was 3 µL/min/1e6 cells.

For `C[C@@H]1Cc2c(ccc3[nH]ncc23)[C@@H](c2ccc(OCCN3CC(CF)C3)cn2)N1CC(F)F` [Example 51, (6S,8R)-7-(2,2-difluoroethyl)-6-(5-(2-(3-(fluoromethyl)azetidin-1-yl)ethoxy)pyridin-2-yl)-8-methyl-6,7,8,9-tetrahydro-3H-pyrazolo[4,3-f]isoquinoline], the “Human plasma protein binding (% free)” value in series [1] was 49 % free. The logD in series [2] is 2.4. Also, in series [3], the hepatocyte CLint at 1 µM is 5 µL/min/1e6 cells.

For `COc1cc(OCCN2CC(CF)C2)ccc1[C@@H]1c2ccc3[nH]ncc3c2C[C@@H](C)N1CC1(F)CC1` [Example 6, (6S,8R)-7-((1-fluorocyclopropyl)methyl)-6-(4-(2-(3-(fluoromethyl)azetidin-1-yl)ethoxy)-2-methoxyphenyl)-8-methyl-6,7,8,9-tetrahydro-3H-pyrazolo[4,3-f]isoquinoline], the “Human plasma protein binding (% free)” value in series [1] stood at 21 % free. Moreover, the logD in series [2] came out at 2.8. In series [3], the hepatocyte CLint at 1 µM was determined as 7 µL/min/1e6 cells.

On to `C[C@@H]1Cc2c(ccc3[nH]ncc23)[C@@H](c2ccc(OCCN3CC(CF)C3)cn2)N1CC(F)(F)F` [Example 49, (6S,8R)-6-(5-(2-(3-(fluoromethyl)azetidin-1-yl)ethoxy)pyridin-2-yl)-8-methyl-7-(2,2,2-trifluoroethyl)-6,7,8,9-tetrahydro-3H-pyrazolo[4,3-f]isoquinoline], for which the “Human plasma protein binding (% free)” value in series [1] is 23 % free. In addition, the pH-dependent lipophilicity (logD) in series [2] amounted to 3. The hepatocyte CLint at 1 µM in series [3] amounted to 3 µL/min/1e6 cells.
